Reference: patent publication US10166225B2, “Method for treating osteoporosis” (Exelixis, Inc., priority 2011, dated 2019)

Columns and labels:
[1] = test system: human osteoclasts; test: Osteoclast activity assay (resorption index CTX/TRACP 5b); type: cell-based; settings: reference inhibitor, 1_M
Procedure: In the second part, the culture medium of human osteoclasts was replaced by new medium at day 7, and the formed mature osteoclasts were cultured for an additional 3 days, allowing them to resorb bone. Compound 1 was added into the culture medium at day 7. […] C-terminal cross-linked telopeptides of type I collagen (CTX) were measured in the culture medium collected at day 10 to quantitate bone resorption during days 7-10. […] was measured at day 7 to quantitate osteoclast number before Compound 1 was added. The CTX values were divided by the […] values, resulting as a resorption index that indicates mean osteoclast activity. […] The objective of this study was to investigate the effects of Compound 1 selected by the Sponsor on differentiation and activity of human osteoclasts and mouse osteoblasts in vitro. The effects on osteoclasts were studied using a model where bone marrow-derived human osteoclast precursor cells are cultured on bovine bone slices for 7 days in conditions favouring osteoclast differentiation, and allowed to differentiate into bone-resorbing osteoclasts. After completion of osteoclast differentiation at day 7, the culture medium was removed and new culture medium favouring osteoclast activity was added into the wells. The mature osteoclasts were then cultured for an additional 3 days, allowing them to resorb bone. In the osteoclast differentiation assay, the test compounds and a reference inhibitor osteoprotegerin (OPG) were added into cultures at day 0. In the osteoclast activity assay, the test compounds and a reference inhibitor E64 were added into cultures at day 7. Seven concentrations in 8 replicates were tested in both assays. Tartrate-resistant acid phosphatase 5b activity ([…]) was measured from the culture medium collected at day 7 as an index of the number of osteoclasts formed in each well during the differentiation period. C-terminal cross-linked telopeptides of type I collagen (CTX) was measured from the culture medium collected at day 10 to quantitate bone resorption during days 7-10. A human osteoclast culture system was developed for use in this study where CD34+ osteoclast precursor cells derived from human bone marrow (Poietics® Human Osteoclast Precursors, Lonza, Walkersville, USA) are cultured on bovine bone slices in the presence of appropriate growth factors, including M-CSF and RANK-ligand ([…] et al. 2009). The cells are first allowed to differentiate into mature bone-resorbing osteoclasts, and the formed osteoclasts are then allowed to resorb bone. The test and reference compounds are added into the cell cultures at the beginning of the differentiation and/or the resorption period, and their effects on the differentiation and/or resorbing activity of osteoclasts are determined. Secreted […] is determined from the culture medium after the differentiation period using a commercially available method (BoneTRAPÒ, IDS Ltd, Boldon, UK). Secreted […] describes accurately the number of osteoclasts formed in each well during the differentiation period. CTX is determined from the culture medium after the resorption period using a commercially available method (CrossLapsÒ for cultures, IDS Ltd, Boldon, UK). CTX describes accurately the amount of bone collagen degradation products released into the culture medium in each well during the resorption period. […] In this study, human bone marrow-derived CD34+ stem cells (10000 cells/well) were suspended in culture medium and allowed to attach to bovine bone slices in 96-well tissue culture plates. The culture medium (containing 10% FBS, OCP BulletKit® Lonza, Walkersville, USA) was supplemented with appropriate amounts of important growth factors favoring osteoclast differentiation and activity, including M-CSF (33 ng/ml, OCP BulletKit® Lonza, Walkersville, USA) and RANK-ligand (66 ng/ml, OCP BulletKit® Lonza, Walkersville, USA) in 200 μl of medium. The cells were incubated in a CO2 incubator in humidified atmosphere of 95% air and 5% carbon dioxide at 37° C. […]

[2] = postmenopausal women, one subcutaneous injection, dose-dependent, for as long as 6 months; cited from earlier work
[3] = women, subcutaneous denosumab 60 mg every 6 months; one month after injection; cited from earlier work

With CC(C)C[C@H](NC(=O)[C@H]1O[C@@H]1C(=O)O)C(=O)NCCCCN=C(N)N [Compound E64, reference compound] the “effect on osteoclast activity” value [1] was “inhibited significantly”.
For “denosumab: subcutaneous denosumab (60 mg) in the FREEDOM osteoporosis trial”, the “suppression of urinary NTx” value [2] is listed as “up to 81%” and the “serum CTx levels” value [3] is listed as “decreased to levels below the premenopausal reference interval”.
